Target: T1, human TLR8 (Homo sapiens, UniProt Q9NR97)
T1 construct: host or cells: HEK293 (HEK-Blue hTLR8)
T1 sequence (Q9NR97 27-1041): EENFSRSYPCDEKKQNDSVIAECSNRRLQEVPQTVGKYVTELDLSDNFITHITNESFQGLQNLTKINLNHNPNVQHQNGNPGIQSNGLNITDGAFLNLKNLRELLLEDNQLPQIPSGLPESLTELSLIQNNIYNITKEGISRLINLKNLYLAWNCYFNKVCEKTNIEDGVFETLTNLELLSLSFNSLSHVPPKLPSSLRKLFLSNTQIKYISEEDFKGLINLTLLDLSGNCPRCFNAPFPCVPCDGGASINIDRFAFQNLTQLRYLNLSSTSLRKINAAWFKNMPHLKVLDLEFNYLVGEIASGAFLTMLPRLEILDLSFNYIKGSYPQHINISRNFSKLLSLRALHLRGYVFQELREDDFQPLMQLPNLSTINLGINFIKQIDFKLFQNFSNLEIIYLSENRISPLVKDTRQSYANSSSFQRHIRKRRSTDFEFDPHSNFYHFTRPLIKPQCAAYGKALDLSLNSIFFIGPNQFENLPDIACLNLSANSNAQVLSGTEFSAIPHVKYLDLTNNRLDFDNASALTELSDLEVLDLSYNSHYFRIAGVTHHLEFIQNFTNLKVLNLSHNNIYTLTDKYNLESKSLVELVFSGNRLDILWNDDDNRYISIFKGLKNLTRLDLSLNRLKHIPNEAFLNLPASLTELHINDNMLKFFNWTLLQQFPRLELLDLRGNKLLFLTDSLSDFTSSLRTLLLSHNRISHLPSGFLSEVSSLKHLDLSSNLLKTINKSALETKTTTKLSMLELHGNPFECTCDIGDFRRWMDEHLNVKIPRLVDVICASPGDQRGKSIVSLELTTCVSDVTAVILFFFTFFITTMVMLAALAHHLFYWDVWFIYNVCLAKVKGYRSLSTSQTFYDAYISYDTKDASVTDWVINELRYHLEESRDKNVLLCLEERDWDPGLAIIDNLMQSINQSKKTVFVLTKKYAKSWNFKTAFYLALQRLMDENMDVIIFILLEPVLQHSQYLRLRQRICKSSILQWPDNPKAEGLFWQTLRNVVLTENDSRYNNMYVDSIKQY
Experiment: HEK293-Blue-hTLR-8 cells assay
Assay type: cell-based
Conditions: HEK293-Blue-hTLR8 cells, R848 stimulation, 20 hrs; read-out: HEK/hTLR8 IC50
Description: A stable HEK293-Blue-hTLR-8 cell line was purchased from InvivoGen (Cat. #: hkb-htlr8, San Diego, California, USA). These cells were originally designed for studying the stimulation of human TLR8 by monitoring the activation of NF-κB. A SEAP (secreted embryonic alkaline phosphatase) reporter gene was placed under the control of the IFN-β minimal promoter fused to five NF-κB and AP-1-binding sites. The SEAP was induced by activating NF-κB and AP-1 via stimulating HEK-Blue hTLR8 cells with TLR8 ligands. Therefore the reporter expression was declined by TLR8 antagonist under the stimulation of a ligand, such as R848, for incubation of 20 hrs. The cell culture supernatant SEAP reporter activity was determined using QUANTT-BlueTv™ kit (Cat. #: rep-qbl, Invivogen, San Diego, Ca, USA) at a wavelength of 640 nm, a detection medium that turns purple or blue in the presence of alkaline phosphatase.
HEK293-Blue-hTLR8 cells were incubated at a density of 250,000˜450,000 cells/mL in a volume of 170 μL in a 96-well plate in Dulbecco's Modified Eagle's medium (DMEM) containing 4.5 g/L glucose, 50 U/mi penicillin, […] streptomycin, […], 2 mM L-glutamine, 10% (v/v) heat-inactivated fetal bovine serum with addition of 20 μL test compound in a serial dilution in the presence of final DMSO at 1% and 10 μL of 60 μM R848 in above DMEM, perform incubation under 37° C. in a CO2 incubator for 20 hrs. Then 20 μL of the supernatant from each well was incubated with 180 μL Quanti-blue substrate solution at 37° C. for 2 hrs and the absorbance was read at 620-655 nm using a spectrophotometer. The signaling pathway that TLR8 activation leads to downstream NF-κB activation has been widely accepted, and therefore similar reporter assay was modified for evaluating TLR8 antagonist.

SMILES | IC50
COc1cc(N2CCNCC2)cnc1C1CCN(c2cc(C)nc3c2cnn3C)CC1 [Example 14, 4-[4-(3-methoxy-5-piperazin-1-yl-2-pyridyl)-1-piperidyl]-1,6-dimethyl-pyrazolo[3,4-b]pyridine] | 13 nM
Cc1cc(N2CC[C@@H](c3ccc(N4CCNCC4)cn3)[C@H](C)C2)c2cnn(C)c2n1 [Example 34, 1,6-dimethyl-4-[(3S,4R)-3-methyl-4-(5-piperazin-1-yl-2-pyridyl)-1-piperidyl]pyrazolo[3,4-b]pyridine] | 11 nM
Cc1cc(N2CC[C@@H](c3ncc(N4C[C@H]5NCCO[C@@H]5C4)cc3C)[C@H](C)C2)c2cnn(C)c2n1 [Example 33, (4aR,7aR)-6-[6-[(3S,4R)-1-(1,6-dimethylpyrazolo[3,4-b]pyridin-4-yl)-3-methyl-4-piperidyl]-5-methyl-3-pyridyl]-3,4,4a,5,7,7a-hexahydro-2H-pyrrolo[3,4-b][1,4]oxazine] | 3 nM
Cc1cc(N2CCC(c3ccc(N4CCNCC4)nc3C)CC2)c2cnn(C)c2n1 [Example 10, 1,6-dimethyl-4-[4-(2-methyl-6-piperazin-1-yl-3-pyridyl)-1-piperidyl]pyrazolo[3,4-b]pyridine] | 13 nM
COC[C@H]1CN(c2cnc([C@@H]3CCN(c4cc(C)nc5c4cnn5C)C[C@H]3C)c(C)c2)CCN1 [Example 29, 4-[(3S,4R)-4-[5-[(3R)-3-(methoxymethyl)piperazin-1-yl]-3-methyl-2-pyridyl]-3-methyl-1-piperidyl]-1,6-dimethyl-pyrazolo[3,4-b]pyridine] | 8 nM
Cc1cc(N2CCC(c3cnc(N4CCNCC4)cc3C)[C@H](C)C2)c2cnn(C)c2n1 (single isomer, unassigned) [Example 21, 1,6-dimethyl-4-[trans-3-methyl-4-(4-methyl-6-piperazin-1-yl-3-pyridyl)-1-piperidyl]pyrazolo[3,4-b]pyridine] | 3 nM
Cc1cc(N2CCC(c3ncc(N4CCNCC4)cc3C)CC2)c2cnn(C)c2n1 [Example 7, 1,6-dimethyl-4-[4-(3-methyl-5-piperazin-1-yl-2-pyridyl)-1-piperidyl]pyrazolo[3,4-b]pyridine] | 29 nM

Further molecules by falling IC50, results first:

IC50 | SMILES
47 nM | Cc1cc(N2CCC(c3ncc(N4CC[C@@H](N)[C@@H](F)C4)cc3C)CC2)c2cnn(C)c2n1 [Example 15, (3S,4R)-1-[6-[1-(1,6-dimethylpyrazolo[3,4-b]pyridin-4-yl)-4-piperidyl]-5-methyl-3-pyridyl]-3-fluoro-piperidin-4-amine]
44 nM | CCc1cc(N2CCNCC2)cnc1C1CCN(c2cc(C)nc3c2cnn3C)CC1 [Example 13, 4-[4-(3-ethyl-5-piperazin-1-yl-2-pyridyl)-1-piperidyl]-1,6-dimethyl-pyrazolo[3,4-b]pyridine]
32 nM | COC[C@H]1CN(c2cnc(C3CCN(c4cc(C)nc5c4cnn5C)CC3)c(C)c2)CCN1 [Example 16, 4-[4-[5-[(3R)-3-(methoxymethyl)piperazin-1-yl]-3-methyl-2-pyridyl]-1-piperidyl]-1,6-dimethyl-pyrazolo[3,4-b]pyridine]
15 nM | Cc1cc(N2CC[C@@H](c3ncc(N4CC(C)(N)C4)cc3C)[C@H](C)C2)c2cnn(C)c2n1 [Example 32, 1-[6-[(3S,4R)-1-(1,6-dimethylpyrazolo[3,4-b]pyridin-4-yl)-3-methyl-4-piperidyl]-5-methyl-3-pyridyl]-3-methyl-azetidin-3-amine]
10 nM | Cc1cc(N2CC[C@H](c3ccc(N4CC[C@@H](N)[C@H](F)C4)cn3)[C@@H](C)C2)c2cnn(C)c2n1 [Example 41, (3R,4R)-1-[6-[(3R,4S)-1-(1,6-dimethylpyrazolo[3,4-b]pyridin-4-yl)-3-methyl-4-piperidyl]-3-pyridyl]-3-fluoro-piperidin-4-amine]
8 nM | Cc1cc(N2CCC(c3cnc(N4CCNCC4)cc3C)CC2)c2cnn(C)c2n1 [Example 8, 1,6-dimethyl-4-[4-(4-methyl-6-piperazin-1-yl-3-pyridyl)-1-piperidyl]pyrazolo[3,4-b]pyridine]
7 nM | Cc1cc(N2CC[C@@H](c3ncc(N4CC5(CNCCO5)C4)cc3C)[C@H](C)C2)c2cnn(C)c2n1 [Example 27, 2-[6-[(3S,4R)-1-(1,6-dimethylpyrazolo[3,4-b]pyridin-4-yl)-3-methyl-4-piperidyl]-5-methyl-3-pyridyl]-5-oxa-2,8-diazaspiro[3.5]nonane]
